Data from US9241991B2, “Agents, compositions, and methods for treating pruritus and related skin conditions” (The Brigham and Women's Hospital, Inc., priority 2010, dated 2016).

Experiments:
DRG neurons = assay: Calcium imaging from cultured DRG neurons; type: cell-based; details: wild-type mice DRG neurons
Description: DRGs from all spinal levels of 4-week old mice were collected in cold DH10 (90% DMEM/F-12, 10% FBS, 100 U/ml penicillin, and 100 μg/ml Streptomycin, Gibco) and treated with enzyme solution (5 mg/ml Dispase, 1 mg/ml Collagenase Type I in HPBS without Ca^++ and Mg^++, Gibco) at 37° C. Following trituration and centrifugation, cells were resuspended in DH10, plated on glass cover slips coated with poly-D-lysine (0.5 mg/ml, Stoughton, Mass.) and laminin (10 μg/ml, Invitrogen), cultured in an incubator ([…] and 5% CO2) at 37° C. and used within 24 hours. Neurons were loaded with Fura 2-acetomethoxy ester (Molecular Probes) for 30 min in the dark at room temperature. After washing, cells were imaged at 340 and 380 nm excitation to detect intracellular free calcium. To compare the response to histamine, chloroquine, and capsaicin between WT and Tlr3-deficient DRG neurons, calcium imaging assays were performed with an experimenter blind to genotype (n=3 per genotype), and the percentages of DRG neurons showing calcium responses were determined as we previously described (23).

TRPV1 [1] = biological target: T1, TRPV1 (Mus musculus, UniProt Q704Y3); assay: Behavior after intrathecal injection of capsaicin; type: in vivo; details: WT mice
TRPV1 [2] = biological target: T1, TRPV1; assay: Patch clamp recording of sEPSCs in lamina II neurons of spinal cord slices, capsaicin; type: cell-based; set-up: central terminals of TRPV1-expressing nociceptors; from tissue; host or cells: mouse lumbar spinal cord slices (L4-L5); live mice (intrathecal capsaicin, resiniferatoxin pretreatment); details: capsaicin 1 μM, WT mice spinal cord slices
TLR3 [3] = assay: Compound 48/80- and chloroquine-induced scratching after intrathecal TLR3 AS-ODNs; type: in vivo; details: intrathecal AS-ODNs 10 μg daily for 5 days, adult mice; P<0.05
Description: (§1) We injected pruritic agents intradermally in the nape of the neck (50 μl) or cheek (10 μl), respectively. We purchased histamine, compound 48/80, trypsin, chloroquine, serotonin, TLR3 agonist polyribo-inosinic/cytidylic acid (PIC), and complete Freund's adjuvant (CFA) from Sigma-Aldrich, histamine H1 receptor agonist histamine-trifluoromethyl-toluidine (HTMT), capsaicin, and the H4R-selective agonist 4-methylhistamine (4-MeHA) from Tocris, and endothelin-1 (ET-1) from ALEXIS Biochemicals. […] Antisense oligodeoxynucleotides (AS-ODN; 5′-[…]-3′; SEQ ID NO:1) targeting TLR3 and mismatch ODN (MM-ODN; 5′-[…]-3′; SEQ ID NO:2) were synthesized by Invitrogen according to the published sequences (2). AS-ODN (10 μg) or MM-ODN were intrathecally injected once a day for 5 days. To target DRG and spinal cord cells, TRIF inhibitor (10 μl) were delivered intrathecally into cerebral spinal fluid via a lumbar puncture. […]
Mice were habituated to the testing environment daily for at least two days before analysis. <ice were shaved at the back of the neck the day before injection. […] We injected 50 μl of pruritic agent intradermally in the nape of the neck and counted the number of scratches every 5 min for 30 min after the injection. A scratch was counted when a mouse lifted its hindpaw to scratch the shaved region and returned the paw to the floor or to the mouth for licking. […]

TLR3 [4] = assay: TLR3 protein and mRNA levels in DRGs after intrathecal TLR3 antisense ODNs (Western blotting, quantitative PCR); type: in vivo; details: intrathecal AS-ODNs 10 μg daily for 5 days, adult WT mice; P<0.05
Description: as §1
Mice were terminally anesthetized with isoflurane and transcardially perfused with PBS, and the DRGs were rapidly removed and homogenized in a lysis buffer containing a cocktail of protease inhibitors and phosphatase inhibitors. The protein concentrations were determined by BCA Protein Assay (Pierce), and 30 μg of proteins were loaded for each lane and separated on SDS-PAGE gel (4-15%, Bio-Rad). […]

TLR4 = TLR4 expression in the DRG after intrathecal AS-ODNs (specificity); type: in vivo, mice
Description: We injected pruritic agents intradermally in the nape of the neck (50 μl) or cheek (10 μl), respectively. We purchased histamine, compound 48/80, trypsin, chloroquine, serotonin, TLR3 agonist polyribo-inosinic/cytidylic acid (PIC), and complete Freund's adjuvant (CFA) from Sigma-Aldrich, histamine H1 receptor agonist histamine-trifluoromethyl-toluidine (HTMT), capsaicin, and the H4R-selective agonist 4-methylhistamine (4-MeHA) from Tocris, and endothelin-1 (ET-1) from ALEXIS Biochemicals. […] Antisense oligodeoxynucleotides (AS-ODN; 5′-[…]-3′; SEQ ID NO:1) targeting TLR3 and mismatch ODN (MM-ODN; 5′-[…]-3′; SEQ ID NO:2) were synthesized by Invitrogen according to the published sequences (2). AS-ODN (10 μg) or MM-ODN were intrathecally injected once a day for 5 days. To target DRG and spinal cord cells, TRIF inhibitor (10 μl) were delivered intrathecally into cerebral spinal fluid via a lumbar puncture. A successful spinal puncture was evidenced by a brisk tail-flick after the needle entry into subarachnoid space (3). Most reagents were dissolved in sterile saline. Capsaicin was dissolved in 10% DMSO.
We collected back hairy skin and cervical DRGs from 4 pairs of WT and Tlr3^−/− mice and isolated total RNAs using RNeasy Plus Mini kit (Qiagen, Valencia, Calif.). […]

TLR3 [5] = biological target: T2, TLR3 (Mus musculus, UniProt Q99MB1); assay: Patch-clamp recording of PIC-induced inward currents in dissociated DRG neurons; type: cell-based, mice; set-up: from tissue; host or cells: mouse DRG (dissociated small neurons), lumbar spinal cord slices, neck skin of live mice
T2 sequence (Q99MB1 26-905): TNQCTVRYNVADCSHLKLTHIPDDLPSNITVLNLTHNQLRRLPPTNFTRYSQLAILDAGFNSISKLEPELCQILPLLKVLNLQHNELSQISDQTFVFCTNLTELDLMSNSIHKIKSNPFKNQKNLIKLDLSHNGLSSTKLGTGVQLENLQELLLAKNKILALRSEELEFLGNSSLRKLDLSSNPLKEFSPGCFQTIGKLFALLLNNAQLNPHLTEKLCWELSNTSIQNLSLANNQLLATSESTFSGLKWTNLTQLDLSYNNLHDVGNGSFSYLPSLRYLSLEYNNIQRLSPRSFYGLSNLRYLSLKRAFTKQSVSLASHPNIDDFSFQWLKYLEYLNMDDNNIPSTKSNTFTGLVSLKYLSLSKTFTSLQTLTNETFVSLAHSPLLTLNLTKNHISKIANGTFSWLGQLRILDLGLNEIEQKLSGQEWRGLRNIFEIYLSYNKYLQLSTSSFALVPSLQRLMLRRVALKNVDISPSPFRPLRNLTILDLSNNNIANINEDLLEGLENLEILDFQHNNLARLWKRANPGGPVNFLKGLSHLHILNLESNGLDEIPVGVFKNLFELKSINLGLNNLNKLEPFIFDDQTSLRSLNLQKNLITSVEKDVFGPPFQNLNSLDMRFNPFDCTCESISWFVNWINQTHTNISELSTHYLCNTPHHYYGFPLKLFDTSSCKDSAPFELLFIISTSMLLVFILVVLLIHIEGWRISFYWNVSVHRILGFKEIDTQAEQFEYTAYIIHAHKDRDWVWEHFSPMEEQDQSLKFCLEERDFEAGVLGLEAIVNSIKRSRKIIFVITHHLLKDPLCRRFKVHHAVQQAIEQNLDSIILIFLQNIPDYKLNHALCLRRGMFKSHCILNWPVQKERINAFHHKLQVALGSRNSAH
Description: DRGs were removed aseptically from 4-week old mice and first incubated with collagenase (1.25 mg/ml, Roche)/dispase-II (2.4 units/ml, Roche) at 37° C. for 90 min, then digested with 0.25% trypsin (Cellgro) for 8 min at 37° C., followed by 0.25% trypsin inhibitor (Sigma). Cells were then mechanically dissociated with a flame polished Pasteur pipette in the presence of 0.05% DNAse I (Sigma). DRG cells were plated onto poly-D-lysine and laminin-coated slide chambers (for immunocytochemistry) or glass cover slips (for electrophysiology) and grown in a neurobasal defined medium (with 2% B27 supplement, Invitrogen) in the presence of 5 μM AraC, at 36.5° C., with 5% carbon dioxide.
Single-cell RT-PCR was performed as previously described (6). DRG cultures were prepared as above described and grown on glass cover slips coated with poly-D-lysine and laminin. Whole-cell patch clamp recordings were performed at room temperature to measure currents in dissociated DRG neurons with small-sizes using Axopatch-200B amplifier (Axon Instruments, Union City, USA). The patch pipettes were pulled from borosilicate capillaries (Chase Scientific Glass Inc., Rockwood, Calif., USA). When filled with the pipette solution, the resistance of the pipettes was 4˜5 MΩ. The recording chamber (volume 300 μl) was continuously superfused (3-4 ml/min). Series resistance was compensated for (>80%), and leak subtraction was performed. Data were low-pass-filtered at 2 KHz, sampled at 10 KHz. The pClamp8 (Axon Instruments) software was used during experiments and analysis. The pipette solution was composed of (in mM): 126 K-gluconate, 10 NaCl, 1 MgCl2, 10 EGTA, 2 NaATP, 0.1 MgGTP, pH 7.3 with KOH, 295-300 mOsm. Extracellular solution contained (in mM): 140 NaCl, 5 KCl, 2 CaCl2, 1 MgCl2, 10 HEPES, 10 glucose adjusted to pH 7.4 with NaOH, osmolarity 310 mOsm. Inward currents were recorded at a holding potential of −60 mV. In some experiments, following parch-clamp recording, the recorded DRG neurons were collected for single-cell RT-PCR analysis.

TLR3 [6] = biological target: T2, TLR3; assay: Patch clamp recording of sEPSCs in lamina II neurons of spinal cord slices, PIC; type: cell-based; set-up: from tissue; host or cells: mouse DRG (dissociated small neurons), lumbar spinal cord slices, neck skin of live mice; details: PIC 100 ng/ml, slices of WT but not Tlr3-/- mice; P<0.05
Description: As we previously reported (18), a portion of the lumbar spinal cord (L4-L5) was removed from mice (4-6 week old) under urethane anesthesia (1.5-2.0 g/kg, i.p.) and kept in pre-oxygenated ice-cold Krebs solution. Transverse slices (600 μm) were cut on a vibrating microslicer. The slices were perfused with Kreb's solution (8-10 ml/min) that was saturated with 95% O2 and 5% CO2 at 36±1° C. for at least 1-3 hours prior to experiment. The Kreb's solution contains (in mM): NaCl 117, KCl 3.6, CaCl2 2.5, MgCl2 1.2, NaH2PO4 1.2, NaHCO3 25, and glucose 11.
The whole cell patch-clamp recordings were made from lamina IIo neurons in voltage clamp mode. Patch pipettes were fabricated from thin-walled, borosilicate, glass-capillary tubing (1.5 mm o.d., World Precision Instruments). After establishing the whole-cell configuration, neurons were held at the potential of −70 mV to record sEPSCs. The resistance of a typical patch pipette is 5-10 M. The internal solution contains (in mM): potassium gluconate 135, KCl 5, CaCl2 0.5, MgCl2 2, EGTA 5, HEPES 5, ATP-Mg 5. Membrane currents were amplified with an Axopatch 200B amplifier (Axon Instruments) in voltage-clamp mode. Signals were filtered at 2 kHz and digitized at 5 kHz. Data were stored with a personal computer using pCLAMP 10 software and analyzed with Mini Analysis (Synaptosoft Inc.).

TLR3 [7] = biological target: T2, TLR3; assay: Scratching after intradermal PIC in naive mice and after AEW dry skin treatment; type: in vivo; set-up: from tissue; host or cells: mouse DRG (dissociated small neurons), lumbar spinal cord slices, neck skin of live mice
Description: Mice were habituated to the testing environment daily for at least two days before analysis. <ice were shaved at the back of the neck the day before injection. We put mice in small plastic chambers (14×18×12 cm) on an elevated metal mesh floor and allowed 30 min for habituation before examination. We injected 50 μl of pruritic agent intradermally in the nape of the neck and counted the number of scratches every 5 min for 30 min after the injection. A scratch was counted when a mouse lifted its hindpaw to scratch the shaved region and returned the paw to the floor or to the mouth for licking. On the basis of previous reports (4; 5) and our preliminary studies (6), we chose the following doses for pruritic agents: 25 ng for ET-1, 20 μg for 5-HT, 100 μg for HTMT, compound 48/80, and SLIGRL-NH2, 200 μg for chloroquine, 300 μg for trypsin, and 500 μg for histamine and 4-MeHA. We also injected diluted formalin (0.6%, 50 μl) in the nape to induce scratching behaviors. The experimenters were blinded to the genotypes of the animals. We also produced a dry skin model for chronic itch as described in detail previously (7), by painting neck skin with acetone and diethyether (1:1) following by water (AEW) twice a day for 7 days, and examined spontaneous itch by counting the number of scratches for 60 minutes on day 8 and 9.

T1 sequence (Q704Y3 whole entry): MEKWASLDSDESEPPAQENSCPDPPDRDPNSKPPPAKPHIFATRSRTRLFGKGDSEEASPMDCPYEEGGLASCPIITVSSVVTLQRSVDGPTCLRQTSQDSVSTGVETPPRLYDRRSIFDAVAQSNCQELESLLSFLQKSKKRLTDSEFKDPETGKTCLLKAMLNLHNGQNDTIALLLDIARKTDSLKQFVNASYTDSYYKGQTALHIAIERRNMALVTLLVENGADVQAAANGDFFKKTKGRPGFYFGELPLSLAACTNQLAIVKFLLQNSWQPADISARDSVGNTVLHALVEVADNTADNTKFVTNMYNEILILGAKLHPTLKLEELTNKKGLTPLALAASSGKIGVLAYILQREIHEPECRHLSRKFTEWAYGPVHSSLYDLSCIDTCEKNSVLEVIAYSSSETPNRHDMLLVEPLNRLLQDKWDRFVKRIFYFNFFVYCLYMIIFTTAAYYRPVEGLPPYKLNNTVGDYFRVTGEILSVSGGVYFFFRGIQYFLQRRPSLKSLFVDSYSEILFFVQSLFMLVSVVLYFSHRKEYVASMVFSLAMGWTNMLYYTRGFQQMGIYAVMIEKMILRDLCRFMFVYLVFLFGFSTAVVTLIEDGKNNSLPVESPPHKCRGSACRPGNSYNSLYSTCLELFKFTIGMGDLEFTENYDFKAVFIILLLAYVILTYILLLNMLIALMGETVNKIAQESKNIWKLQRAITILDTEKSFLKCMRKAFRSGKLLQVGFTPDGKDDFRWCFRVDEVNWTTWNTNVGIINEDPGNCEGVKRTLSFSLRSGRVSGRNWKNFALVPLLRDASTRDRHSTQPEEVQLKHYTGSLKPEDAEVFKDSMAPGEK

**Q.** For COc1cc(CNC(=O)CCCC/C=C/C(C)C)ccc1O [capsaicin], which “neurons with intracellular Ca2+ increases” value (DRG neurons) is on record?
**A.** The value was 39%.

**Q.** What about the “behavior after intrathecal injection” value (TRPV1 [1]) of the same compound?
**A.** Its value is “induced biting, licking and scratching behavior”.

**Q.** And the “sEPSC frequency in lamina II neurons” value (TRPV1 [2])?
**A.** Its value is “dramatic increase”.

**Q.** What does the source list for “AS-ODNs: Antisense oligodeoxynucleotides 5′-AACAATTGCTTCAAGTCC-3′ (SEQ ID NO:1) targeting TLR3, synthesized by Invitrogen (DNA, backbone not given here)”?
**A.** chloroquine-induced scratching (TLR3 [3]): significantly inhibited; compound 48/80-induced scratching (TLR3 [3]): significantly inhibited; TLR3 protein and mRNA levels in DRGs (TLR3 [4]): partial knockdown; TLR4 expression in the DRG (TLR4): did not affect

**Q.** With polyribo-inosinic/cytidylic acid [PIC] as the compound, how does the “neurons that respond to PIC” value (TLR3 [5]; PIC 200 ng/ml, small DRG neurons, all also express TLR3 mRNA) read?
**A.** Its value is “four neurons (out of ten)”.

**Q.** And the “inward currents in DRG neurons from Tlr3-/- mice” value (TLR3 [5]; Tlr3-/- mice)?
**A.** Its value is “failed to induce inward currents”.

**Q.** What about the “neurons in which an inward current was elicited” value (TLR3 [5]; dissociated DRG neurons, WT, PIC 100-1000 ng/ml, 5 out of 8) of the same compound?
**A.** The value was 60%.

**Q.** What about the sEPSC frequency (TLR3 [6]) of the same compound?
**A.** The sEPSC frequency was “increased”.

**Q.** And the “scratching responses in naive mice” value (TLR3 [7]; intradermal PIC 0.1-100 μg)?
**A.** Its value is “failed to induce obvious scratching responses”.

**Q.** What about the “spontaneous scratching after AEW treatment” value (TLR3 [7]; intradermal PIC, TLR3-dependent, P<0.05) of the same compound?
**A.** Its value is “able to potentiate”.
